For one data set, the target named is T1, AKT1 (Homo sapiens, UniProt P31749).
T1 construct: purchased Millipore
Description: AKT1 biochemical kinase assay (FP iMAP). Conditions: for IC50: read-out: AKT IC50, AKT1. The protocol:
(§1) Biochemical analysis was performed using kinases obtained from Millipore (AKT1, ∆AKT1, ∆AKT2, ∆AKT3) and Signal Chem (AKT2 and AKT3). […] (Molecular Devices) against the three isoforms of AKT and their PH domain null mutants. Compounds were dissolved in DMSO prior to screening at 14 point titration series in the range (50 µM–50 pM). Fluorescence polarisation was measured using a Biotek Synergy 4 Hybrid microplate reader. Percentage inhibition of kinase activity was calculated and IC50 values derived using non-linear regression on GraphPad Prism. Competition of ALM301 with ATP was determined using AKT1 under increasing ATP concentrations up to 1000 µM.

The nature of another data set: Kinetic solubility assay. In kind it is physicochemical. Conditions: PBS pH 7.4, read-out: Kinetic solubility pH7.4. The method, then:
Compound solubility was tested in Dulbecco A PBS buffer at pH7.4 in Millipore MultiScreen Solubility Filter plates. Analysis was carried out on a Bioteck Synergy 4 plate reader (240–400 nm) and solubility quantified against a 5-point calibration curve.

The target of the next data set is T2, AKT2 (Homo sapiens, UniProt P31751).
T2 construct: purchased Signal Chem
The experiment in a line: AKT2 biochemical kinase assay (FP iMAP). Conditions: read-out: AKT IC50, AKT2. The protocol: as §1

Data set [1] deals with pGSK3β in PC3 prostate cancer cells. Description: pGSK3β ELISA in PC3 cells. In kind it is cell-based. The settings on record: for IC50: Homo sapiens, PC-3, PC3 cells, 24 h. The protocol:
(§2) Cells were then washed with PBS and lysed. The subsequent supernatant was assayed using a GSK3β (pS9) (Invitrogen, Life Technologies) ELISA. Phospho-AKT levels were detected using the phospho-AKT (S473) immunoassay (R&D Systems) as per manufacturer’s protocol. Percentage inhibition of phosphorylation status was calculated by comparing phospho-AKT levels to total AKT levels with each treatment and IC50 values derived using non-linear regression on GraphPad Prism.

For the next data set, the target named is T3, AKT3 (Homo sapiens, UniProt Q9Y243).
T3 construct: purchased Signal Chem
The experiment in a line: AKT3 biochemical kinase assay (FP iMAP). The settings on record: read-out: AKT IC50, AKT3. The method, then: as §1

A further data set concerns MCF-7 xenografts. Description: Efficacy study in MCF-7 breast cancer xenograft model. In kind it is in vivo. Conditions: MCF-7 xenograft, tamoxifen alone 5 mg/kg q.d. p.o. The method, then: For efficacy in MCF-7 xenografts, 150 SCID female mice aged 6–8 weeks and weighing approximately 18–22 g were implanted with 1 × 10^7 MCF-7 tumour cells (ATCC) subcutaneously in the right flank. […] Once mean tumour size reached approximately 150 mm^3, mice were randomised to either control or treatment groups (n = 10/group) using a randomised block approach. Groups sizes were devised based on past experience of the provider. […] Tumour size was measured twice weekly in two dimensions using a caliper, and the volume expressed in mm^3 using the formula: V = 0.5 (a x b^2), where a and b are the long and short diameters of the tumour, respectively.

The next data set relates to MCF-7 cells. The settings on record: ALM301 in combination with Tamoxifen. The method, then:
A synergy screen, using ALM301 and combination partners in a matrix design, was conducted to identify compounds which are synergistic in combination with ALM301. Synergy was calculated using the median concentration effect method using Calcusyn software as previously described.

For data set [2], the system named is pAKT^S473 in A549 tumours. Description: PK/PD study in A549 lung cancer xenograft model. The class given is in vivo, mouse. Conditions: single oral dose 100 mg/kg, 24-h time period, A549 xenograft. The method, then:
In order to understand the relationship between ALM301 plasma exposure and in vivo AKT target engagement over time, a PK/PD study was carried out in a A549 lung cancer xenograft model. […] ALM301 plasma concentrations and levels of pAKT^S473 in tumours were measured using western blotting and immunohistochemistry (Fig. 4A, B and Supplementary Fig. S4A–C). […] Tumour sections were collected following one dose of either vehicle or 30 mg/kg of ALM301 at noted time intervals (1 h, 2 h, 4 h, 8 h, 24 h). Tissue sections were subsequently stained with pAKT antibody (brown) staining and scored for pAKT staining using a scale of 1–4 (low to high) (Fig. 4B).
For pharmacokinetic/pharmacodynamic (PK/PD) studies in A549 lung cancer xenografts, 150 male BALB/c nude mice aged 6–8 weeks and weighing approximately 18–22 g were inoculated with 1 × 10^7 A549 tumour cells (ATCC) in 0.1 mL of PBS with Matrigel (1:1) subcutaneously into the right flank. Once the mean tumour size reached 150–250 mm^3, the mice were randomised into treatment groups (18 mice per group) using a randomised block design (first, experimental animals are divided into homogeneous blocks according to their initial tumour volume; secondly, within each block, randomisation of animals to treatment groups was conducted so that each animal had the same probability of being assigned to a given treatment, thereby reducing systematic bias). Group sizes were devised based on previous pilot studies using a minimal numbers approach of n = 3 tumours per time-point (6 time-points per dose level). […] Tumour size was measured twice weekly in two dimensions using a caliper, and the volume expressed in mm^3 using the formula: V = 0.5 (a × b^2), where a and b are the long and short diameters of the tumour, respectively.

Data set [3] can be described thus: In vitro proliferation assay (CellTiter-Glo), normal cell lines. The class given is cell-based. The settings on record: human, normal cell lines (4 of the 6 tested; lines not named); 4 of the 6 normal cell lines tested; read-out: cytotoxicity EC50, normal cell lines. The method, then: MCF-7, T47D, NCI-H460, HCT116, LNCaP, A431, PC3, PANC-1, A549, HT29M, SKOV-3, Du145, HMEC-1, Hs888Lu, Hela, MDA-MB-231 and SW480 cells were obtained from American Type Culture Collection (ATCC). A2780, PNT2, U251MG, HFFF2 and Fr2 cells were obtained from Public Health England European Collection of Authenticated Cell Cultures (Phe ECACC). InMyoFib and NHLF cells were acquired from Lonza. Cells were then incubated with increasing concentration of inhibitor (1 nM to 100 µM) for 72 h at 37 °C. Cell viability was determined using the CellTiter-Glo Luminescent Cell Viability Assay (Promega). IC50 values were derived as previously stated.

A short description of data set [4]: In vitro microsomal stability, human. In kind it is in vitro ADME. The settings on record: pH 7.4; human liver microsomes; read-out: human LM CLint. The method, then: (§3) Compounds (final concentration = 1 µM; final DMSO concentration = 0.1%) were incubated in 0.1 M phosphate buffer at pH 7.4 with liver microsomes (human, mouse, rat or dog; 0.5 mg of protein/mL) at 37 °C. Reactions were started by addition of NADPH in 0.1 M phosphate buffer pH 7.4 (final concentration 1 mM). Reactions were quenched by addition of ice-cold methanol and frozen. The supernatants were analysed by LC/MS/MS on a Waters Acquity I-Class coupled to a Waters Xevo TQD mass spectrometer. A Waters BEH C18 2.1 × 50 mm 1.7 µm column was used and mobile phases consisted of water and methanol containing 0.1% formic acid as modifier. Analysis was by multiple reaction monitoring and conditions were optimised for each test compound.

The next data set in a line: LogD7.4 assay. The class given is physicochemical. The settings on record: octanol/PBS buffer; octanol/PBS pH 7.4. The method, then: Compounds (100 µM) were shaken at 300 rpm at room temperature for 4 h in a biphasic system of octanol and PBS buffer pH 7.4 in a 96-well plate in triplicate. The relative drug concentration in each phase was then determined by the peak area measurement from LC-UV analysis on an Agilent 1260 chromatography instrument (UV detection at 254 nm and 220 nm). LogD is calculated as follows: LogD = Log[peak area of compound in octanol x injection volume of buffer phase/peak area of compound in buffer x injection volume of octanol phase].

The next data set addresses CYP 2C9 (Homo sapiens, UniProt P11712). The experiment in a line: CYP2C9 inhibition. The class given is in vitro ADME.
A short description of data set [5]: Pharmacokinetic study in Sprague–Dawley rats. The class given is in vivo, rat. The settings on record: male SD rats. The method, then:
Eight rats were purchased and 6 used on the PK study (3 per administration route). The remaining rats were purchased in case of mis-dosing events and were used to obtain blank biological matrix. Compounds were administered as single i.v. doses at 1 mg free base/kg or single oral doses at 5 mg free base/kg, with blood samples obtained from three rats per dose route, at 9 time-points out to 24 h post-dose. Both the intravenous and oral doses were prepared at a concentration of 1 mg free base/mL in a mixture of 5% DMSO/95% saline. Blood samples were centrifuged to give plasma. Plasma proteins were precipitated, and compounds extracted by addition of six volumes of acetonitrile containing warfarin as internal standard. Samples were centrifuged at 4000 rpm for 30 min and the supernatants were analysed on a Waters Xevo TQ mass spectrometer. Multiple Reaction Monitoring (MRM) methods were developed for each test compound using Waters IntelliStart software.
Quantification of test compounds was by extrapolation from calibration lines prepared in control rat plasma and analysed concurrently with experimental samples.
Non-compartmental analysis was performed using the software package PK Solutions 2.0 from Summit Research Services to produce the PK parameters. AUC values were calculated by the trapezoidal method.
Oral bioavailability was estimated by comparison of the drug concentration/time AUCs for individual animals after oral dosing with the mean AUC from i.v. doses.

A short description of data set [6]: In vitro microsomal stability, rat. The class given is in vitro ADME. Conditions: pH 7.4; rat liver microsomes; read-out: rat LM CLint. The method, then: as §3
A general note: Liver microsomes are vesicles of endoplasmic reticulum, rich in cytochrome P450 enzymes.

The test system of data set [7] is pAKT (Ser473) in MCF-7 cells. The experiment in a line: phospho-AKT (S473) ELISA in MCF-7 cells. The class given is cell-based. The settings on record: Homo sapiens, MCF7, 24h treatment, read-out: EC50 inhibition of phosphorylation of AKT. The protocol:
as §2
(In general: In an ELISA, binding on a coated surface is turned into a signal by an enzyme label.)

Where [8] appears, read: PBS buffer, pH 7.4, aqueous buffer, kinetic from dmso stock.

SMILES strings stand for the structures. Read-outs that look alike come from different tables or passages of the source. Where only a bound is given, the exact number is not on record here.

T1 sequence (P31749 whole entry): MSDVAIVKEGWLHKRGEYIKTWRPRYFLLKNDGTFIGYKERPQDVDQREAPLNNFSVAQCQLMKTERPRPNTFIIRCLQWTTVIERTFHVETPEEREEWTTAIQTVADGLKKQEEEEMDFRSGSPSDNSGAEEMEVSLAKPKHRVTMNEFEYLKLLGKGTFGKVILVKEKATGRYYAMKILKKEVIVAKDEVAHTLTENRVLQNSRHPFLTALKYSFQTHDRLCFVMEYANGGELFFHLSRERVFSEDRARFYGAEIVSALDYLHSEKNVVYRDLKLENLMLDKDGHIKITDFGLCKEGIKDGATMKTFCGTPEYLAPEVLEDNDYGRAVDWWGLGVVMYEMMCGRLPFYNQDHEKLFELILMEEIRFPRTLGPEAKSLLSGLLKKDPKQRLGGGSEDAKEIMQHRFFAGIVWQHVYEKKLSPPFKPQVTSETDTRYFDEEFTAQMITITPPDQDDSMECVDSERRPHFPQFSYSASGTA
T2 sequence (P31751 whole entry): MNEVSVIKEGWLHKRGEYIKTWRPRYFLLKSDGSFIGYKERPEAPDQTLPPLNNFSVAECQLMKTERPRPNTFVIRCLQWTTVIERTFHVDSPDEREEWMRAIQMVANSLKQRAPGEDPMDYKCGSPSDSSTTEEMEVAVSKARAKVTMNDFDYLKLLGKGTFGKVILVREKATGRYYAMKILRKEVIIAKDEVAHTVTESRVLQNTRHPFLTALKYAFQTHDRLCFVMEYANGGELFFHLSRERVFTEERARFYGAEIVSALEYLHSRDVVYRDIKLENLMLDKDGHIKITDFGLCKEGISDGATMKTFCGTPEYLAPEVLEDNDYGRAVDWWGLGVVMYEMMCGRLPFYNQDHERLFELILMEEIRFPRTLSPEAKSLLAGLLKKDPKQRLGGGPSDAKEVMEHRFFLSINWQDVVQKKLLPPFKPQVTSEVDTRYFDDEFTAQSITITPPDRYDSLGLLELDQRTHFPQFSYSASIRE
T3 sequence (Q9Y243 whole entry): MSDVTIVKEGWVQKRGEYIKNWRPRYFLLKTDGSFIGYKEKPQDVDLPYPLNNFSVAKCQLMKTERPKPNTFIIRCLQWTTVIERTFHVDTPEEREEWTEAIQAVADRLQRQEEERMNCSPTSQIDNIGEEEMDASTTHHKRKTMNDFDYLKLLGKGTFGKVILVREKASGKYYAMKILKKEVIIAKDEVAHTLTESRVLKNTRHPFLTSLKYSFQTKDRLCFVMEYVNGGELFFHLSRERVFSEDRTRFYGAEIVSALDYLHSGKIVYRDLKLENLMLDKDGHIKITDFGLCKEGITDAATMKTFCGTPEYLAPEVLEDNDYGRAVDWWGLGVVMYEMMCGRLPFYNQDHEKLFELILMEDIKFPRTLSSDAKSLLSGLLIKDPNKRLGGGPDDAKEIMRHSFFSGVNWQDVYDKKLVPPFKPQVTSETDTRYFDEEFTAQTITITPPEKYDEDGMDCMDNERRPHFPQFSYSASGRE
Chain of CYP 2C9 (P11712 whole entry): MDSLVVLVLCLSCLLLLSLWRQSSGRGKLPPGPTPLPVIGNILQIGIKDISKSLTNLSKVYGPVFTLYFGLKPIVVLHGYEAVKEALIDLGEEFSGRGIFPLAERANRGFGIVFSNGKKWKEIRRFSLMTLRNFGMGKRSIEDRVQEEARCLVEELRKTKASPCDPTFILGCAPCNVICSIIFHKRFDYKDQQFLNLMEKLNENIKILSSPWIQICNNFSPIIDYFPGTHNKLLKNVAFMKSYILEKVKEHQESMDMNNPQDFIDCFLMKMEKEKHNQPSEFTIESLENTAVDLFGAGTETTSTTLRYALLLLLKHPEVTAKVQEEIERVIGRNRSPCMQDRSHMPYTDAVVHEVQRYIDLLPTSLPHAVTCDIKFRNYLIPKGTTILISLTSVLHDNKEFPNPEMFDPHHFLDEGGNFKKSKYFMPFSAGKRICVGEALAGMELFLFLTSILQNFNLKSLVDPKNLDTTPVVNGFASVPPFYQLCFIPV

By IC50 is commonly meant the concentration needed to halve the response being measured. By solubility (kinetic) is commonly meant solubility judged after dilution from a stock solution rather than from solid. On to `CN1C(=O)COc2nc(-c3ccc(C4(N)CCC4)cc3)c(-c3ccccc3)cc21` [compound 2], for which the “AKT1 ligand efficiency (LE)” value at AKT1 is 0.34. The IC50 at AKT1 is 100 nM; at AKT2 it was 400 nM; in [1] it was 100 nM; at AKT3, 5.6 µM. Further, the solubility (kinetic) was above 190 µM in the data set “Kinetic solubility assay” (setting [8]) and 191 µM in “Kinetic solubility assay”. Besides, the “potency improvement in pGSK3β decrease compared with des-N-methyl analogue 1” value in data set [1] (PC3 prostate cancer cells) was “ca. 30 fold”.

`CC/C(=C(\c1ccccc1)c1ccc(OCCN(C)C)cc1)c1ccccc1` [tamoxifen] registered a tumour regression in the data set with MCF-7 xenografts of 24%. In the data set on MCF-7 cells, the “combination effect at ED50” value is recorded as “Synergy”, the “combination effect at ED75” value was “Synergy” and the “combination effect at ED90” value was “Strong Synergy”.

For `NC1(c2ccc(-c3nc4c(cc3-c3ccccc3)NC(=O)CO4)cc2)CCC1` [compound 1], the “AKT1 ligand efficiency (LE)” value on AKT1 stood at 0.28. In addition, the IC50 was found to be 2500 nM on AKT1, 3300 nM at AKT2, 3000 nM in data set [1] and 6.1 µM on AKT3. For the same molecule, the solubility (kinetic) in “Kinetic solubility assay” (setting [8]) was 206 µM.

In general, EC50 refers to the concentration that produces a half-maximal response. By logD is commonly meant lipophilicity at a set pH, counting ionised and neutral species. Read a high logD as a more lipophilic compound. By Vd is commonly meant the apparent volume that relates the amount in the body to the concentration in plasma or blood. On to `NC1(c2ccc(-c3nc4ccn5c(=O)[nH]nc5c4cc3-c3ccccc3)cc2)CCC1` [MK-2206, reference compound], for which the “pAKT^S473 in tumours” value in [2] was “incomplete inhibition”. Moreover, in data set [3], the EC50 at 72 h was below 20 µM. Besides, the values for the microsomal CLint at 1 µM in data set [4] and in data set [6] were 20 µL/min/mg and 13 µL/min/mg, respectively. Also, the kinetic solubility in “Kinetic solubility assay” (setting [8]) was found to be 190 µM. For the same molecule, the logD at 4 h in the data set “LogD7.4 assay” came to 2.4. The values for the IC50 (against CYP 2C9; in data set [1]) were 19 µM and 120 nM, respectively. Also, the clearance in data set [5] (Sprague-Dawley, rat, plasma, iv, 1 mg/kg i.v., read-out: Rat PK CL) was 24 mL/min/kg. The Vd in [5] (Sprague-Dawley, rat, plasma, iv, 1 mg/kg i.v., read-out: Rat PK Vd) was 12 L/kg. The “Rat PK F” value in data set [5] (1 mg/kg i.v. and 5 mg/kg p.o., AUC 0-∞) turned out to be 12%. Besides, the EC50 in data set [7] was 2550 nM.

Values taken from article PMC9489722, “Identification and development of a subtype-selective allosteric AKT inhibitor suitable for clinical development” (Scientific Reports, 2022).
